Calls of active or inactive are those of the source. No cut-off for these calls is given here.
Columns and labels:
[1] = biological target: T1, Kinesin-like protein KIF11 (Homo sapiens, UniProt P52732); test: Inhibition of His-tagged KSP motor domain (1 to 369) (unknown origin) assessed as inhibition of microtubule-stimulated KSP ATPase activity preincuabted for 30 mins followed by ATP addition measured after 15 mins by Kinase-Glo assay
T1 sequence (P52732 whole entry): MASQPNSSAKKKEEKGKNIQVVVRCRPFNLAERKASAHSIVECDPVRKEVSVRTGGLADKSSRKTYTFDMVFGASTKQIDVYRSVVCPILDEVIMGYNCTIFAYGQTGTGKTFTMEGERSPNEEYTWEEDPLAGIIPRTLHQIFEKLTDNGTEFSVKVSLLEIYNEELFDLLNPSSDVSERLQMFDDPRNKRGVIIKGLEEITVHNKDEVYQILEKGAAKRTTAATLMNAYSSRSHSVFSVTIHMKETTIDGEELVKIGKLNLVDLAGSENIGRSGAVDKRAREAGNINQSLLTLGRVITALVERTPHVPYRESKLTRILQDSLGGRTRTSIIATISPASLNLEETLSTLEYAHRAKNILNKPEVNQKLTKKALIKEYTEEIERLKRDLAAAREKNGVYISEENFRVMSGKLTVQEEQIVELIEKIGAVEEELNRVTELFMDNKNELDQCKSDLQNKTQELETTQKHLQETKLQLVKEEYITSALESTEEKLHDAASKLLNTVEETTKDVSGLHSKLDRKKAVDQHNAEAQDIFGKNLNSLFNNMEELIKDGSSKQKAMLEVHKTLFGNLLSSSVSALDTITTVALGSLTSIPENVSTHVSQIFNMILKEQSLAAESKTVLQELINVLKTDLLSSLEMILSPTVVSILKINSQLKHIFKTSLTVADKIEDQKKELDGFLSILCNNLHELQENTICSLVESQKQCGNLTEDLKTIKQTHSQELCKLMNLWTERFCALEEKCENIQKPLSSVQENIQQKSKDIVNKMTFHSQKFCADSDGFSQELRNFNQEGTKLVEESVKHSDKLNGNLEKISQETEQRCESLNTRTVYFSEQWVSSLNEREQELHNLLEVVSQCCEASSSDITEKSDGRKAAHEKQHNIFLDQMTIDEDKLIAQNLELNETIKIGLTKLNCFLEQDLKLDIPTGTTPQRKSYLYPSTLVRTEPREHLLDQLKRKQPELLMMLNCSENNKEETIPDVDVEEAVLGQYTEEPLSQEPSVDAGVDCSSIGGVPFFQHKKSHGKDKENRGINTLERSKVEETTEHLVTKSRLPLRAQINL

[2] = biological target: T2, Chromosome-associated kinesin KIF4A (Homo sapiens) (UniProt O95239); test: Inhibition of microtubule-stimulated KIF4A motor domain (1 to 346) (unknown origin) ATPase activity at 6.3 uM
T2 sequence (whole entry): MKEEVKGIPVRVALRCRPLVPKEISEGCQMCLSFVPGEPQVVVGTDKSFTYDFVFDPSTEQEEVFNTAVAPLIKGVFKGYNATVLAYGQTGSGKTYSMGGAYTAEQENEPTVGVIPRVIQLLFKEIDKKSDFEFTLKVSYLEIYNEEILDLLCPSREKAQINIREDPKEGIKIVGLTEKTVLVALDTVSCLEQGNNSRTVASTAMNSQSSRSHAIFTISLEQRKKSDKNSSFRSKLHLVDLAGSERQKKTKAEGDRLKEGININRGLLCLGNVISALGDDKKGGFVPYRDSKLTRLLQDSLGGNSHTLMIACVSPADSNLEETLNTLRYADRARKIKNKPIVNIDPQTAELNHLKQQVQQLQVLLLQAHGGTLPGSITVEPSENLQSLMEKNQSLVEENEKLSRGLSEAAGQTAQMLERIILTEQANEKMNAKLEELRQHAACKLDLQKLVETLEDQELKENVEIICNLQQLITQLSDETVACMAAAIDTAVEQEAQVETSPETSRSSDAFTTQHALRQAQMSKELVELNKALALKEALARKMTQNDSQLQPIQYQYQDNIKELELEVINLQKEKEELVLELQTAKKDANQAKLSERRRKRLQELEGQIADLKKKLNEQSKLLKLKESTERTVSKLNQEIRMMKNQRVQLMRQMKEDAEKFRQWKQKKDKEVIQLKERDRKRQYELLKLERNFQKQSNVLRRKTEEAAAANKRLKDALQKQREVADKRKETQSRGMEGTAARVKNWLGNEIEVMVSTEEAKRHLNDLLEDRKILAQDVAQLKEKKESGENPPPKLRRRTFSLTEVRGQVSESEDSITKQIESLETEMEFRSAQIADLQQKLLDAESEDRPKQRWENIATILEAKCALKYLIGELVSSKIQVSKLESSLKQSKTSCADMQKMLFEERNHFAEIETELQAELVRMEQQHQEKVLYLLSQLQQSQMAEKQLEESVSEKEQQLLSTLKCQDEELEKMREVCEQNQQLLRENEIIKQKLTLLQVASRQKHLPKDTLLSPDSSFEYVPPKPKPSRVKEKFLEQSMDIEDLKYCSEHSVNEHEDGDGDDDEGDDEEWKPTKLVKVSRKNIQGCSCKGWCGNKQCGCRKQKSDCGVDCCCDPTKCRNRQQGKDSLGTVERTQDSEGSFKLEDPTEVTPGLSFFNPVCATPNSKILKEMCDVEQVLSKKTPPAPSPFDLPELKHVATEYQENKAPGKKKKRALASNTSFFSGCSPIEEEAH

[3] = biological target: T3, Kinesin-like protein KIF22 (Homo sapiens) (UniProt Q14807); test: Inhibition of microtubule-stimulated Kid motor domain (1 to 336) (unknown origin) ATPase activity at 6.3 uM
T3 sequence (whole entry): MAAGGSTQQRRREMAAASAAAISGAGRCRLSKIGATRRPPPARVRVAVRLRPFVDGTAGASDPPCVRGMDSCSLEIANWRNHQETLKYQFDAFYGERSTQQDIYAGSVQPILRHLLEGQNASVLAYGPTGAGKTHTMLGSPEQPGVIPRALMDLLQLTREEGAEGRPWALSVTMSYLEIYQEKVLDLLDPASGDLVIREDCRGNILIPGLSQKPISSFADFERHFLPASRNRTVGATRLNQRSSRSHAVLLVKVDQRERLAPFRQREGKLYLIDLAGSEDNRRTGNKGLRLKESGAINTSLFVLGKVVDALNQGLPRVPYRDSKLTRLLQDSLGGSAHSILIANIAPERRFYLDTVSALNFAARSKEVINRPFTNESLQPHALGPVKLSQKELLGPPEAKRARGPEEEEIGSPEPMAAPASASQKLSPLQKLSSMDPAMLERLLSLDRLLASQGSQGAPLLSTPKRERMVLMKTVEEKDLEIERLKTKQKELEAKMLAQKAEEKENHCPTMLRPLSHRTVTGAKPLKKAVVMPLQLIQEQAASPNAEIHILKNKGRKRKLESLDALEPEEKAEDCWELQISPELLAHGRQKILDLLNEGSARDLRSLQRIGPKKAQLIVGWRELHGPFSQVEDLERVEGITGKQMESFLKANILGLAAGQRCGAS

COc1ccc(C2(SC[C@H](N)C(=O)O)c3ccccc3CCc3ccccc32)cc1 was tested, and the IC50 [1] was 0.014 µM, the inhibition [2] was “inactive” and the inhibition [3] was “inactive”.
With N[C@@H](CSC1(c2ccc(C(F)(F)F)cc2)c2ccccc2CCc2ccccc21)C(=O)O the IC50 [1] was 0.021 µM, the inhibition [2] was “inactive” and the inhibition [3] was “inactive”.

Reference: ChEMBL document CHEMBL3632570, “Structure-Guided Design of Novel l-Cysteine Derivatives as Potent KSP Inhibitors” (ACS Med Chem Lett, 2015)
